Assay results from patent publication US9890185B2, “Urea derivatives useful as kinase inhibitors” (Respivert Limited, priority 2013, dated 2018).

Experiments:
GSK 3α = GSK 3α (Homo sapiens (Human), UniProt P49840); assay: GSK 3α enzyme inhibition (FRET, Z-LYTE, Method 2); assay type: biochemical; conditions: read-out: IC50 Values for Enzyme Inhibition, GSK3α
Protocol: The enzyme inhibitory activities of compounds disclosed herein are determined by FRET using synthetic peptides labelled with both donor and acceptor fluorophores (Z-LYTE, Invitrogen Ltd., Paisley, UK).
The following two assay variants can be used for determination of GSK 3α inhibition.
The inhibitory activities of compounds of the invention against the GSK 3α enzyme isoform (Invitrogen), are evaluated by determining the level of activation/phosphorylation of the target peptide. The GSK3-α protein (500 ng/mL, 2.5 μL) is mixed with the test compound (2.5 μL at either 4 μg/mL, 0.4 μg/mL, 0.04 μg/mL, or 0.004 μg/mL) for 2 hr at RT. The FRET peptide (8 μM, 2.5 μL), which is a phosphorylation target for GSK3α, and ATP (40 μM, 2.5 μL) are then added to the enzyme/compound mixture and the resulting mixture incubated for 1 hr. Development reagent (protease, 5 μL) is added for 1 hr prior to detection in a fluorescence microplate reader (Varioskan® Flash, ThermoFisher Scientific).
In all cases, the site-specific protease cleaves non-phosphorylated peptide only and eliminates the FRET signal. Phosphorylation levels of each reaction are calculated using the ratio of coumarin emission (donor) over fluorescein emission (acceptor), for which high ratios indicate high phosphorylation and low ratios indicate low phosphorylation levels. The percentage inhibition of each reaction is calculated relative to non-inhibited control and the 50% inhibitory concentration (IC50 value) is then calculated from the concentration-response curve.
This method follows the same steps as Method 1 above, but utilises a shorter period of mixing of the test compound (105 minutes instead of 2 hours) with the GSK3-α protein.

PBMCs = assay: LPS-induced IL-8 release in PBMC cells (assay b); assay type: cell-based, human; conditions: Homo sapiens, PBMC; LPS-stimulated PBMCs; read-out: IC50 Values for Inhibition of Cytokine Release, PBMCs IL-8
Protocol: Peripheral blood mononuclear cells (PBMCs) from healthy subjects are separated from whole blood using a density gradient (Lymphoprep, Axis-Shield Healthcare). The PBMCs are seeded in 96 well plates and treated with compounds at the desired concentration for 2 hours before addition of 1 ng/mL LPS (Escherichia Coli 0111:B4 from Sigma Aldrich) for 24 hours under normal tissue culture conditions (37° C., 5% CO2). The supernatant is harvested for determination of IL-8 and TNFα concentrations by sandwich ELISA (Duo-set, R&D systems) and read on the fluorescence microplate reader (Varioskan® Flash, ThermoFisher Scientific). The concentration at 50% inhibition (IC50) of IL-8 and TNFα production is calculated from the dose response curve.

Sequence of GSK 3α (P49840 whole entry): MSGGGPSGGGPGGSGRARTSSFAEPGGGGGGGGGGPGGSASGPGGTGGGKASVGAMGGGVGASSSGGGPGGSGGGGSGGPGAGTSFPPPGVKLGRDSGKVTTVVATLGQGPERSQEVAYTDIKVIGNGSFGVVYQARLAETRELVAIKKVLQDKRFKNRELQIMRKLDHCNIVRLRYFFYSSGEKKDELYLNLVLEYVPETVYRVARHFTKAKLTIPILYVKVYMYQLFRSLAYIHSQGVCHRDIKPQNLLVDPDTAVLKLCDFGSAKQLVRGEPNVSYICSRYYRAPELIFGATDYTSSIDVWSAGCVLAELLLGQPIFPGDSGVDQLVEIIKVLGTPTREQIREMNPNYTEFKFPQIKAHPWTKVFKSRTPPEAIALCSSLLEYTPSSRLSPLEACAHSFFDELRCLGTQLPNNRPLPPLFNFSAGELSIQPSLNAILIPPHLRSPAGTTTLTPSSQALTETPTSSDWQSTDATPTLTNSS

Row | IC50 (GSK 3α) [nM] | Structure (SMILES) | IC50 (PBMCs) [nM]
1 | 957 | CNC(=O)c1cc(Nc2cc(Oc3ccc(NC(=O)Nc4cc(C(C)(C)C)cc(P(C)(C)=O)c4OC)c4ccccc34)ccn2)cc(OCCN2CCOCC2)c1 [79(f), 3-[[4-[[4-[(5-tert-Butyl-3-dimethylphosphoryl-2-methoxy-phenyl)carbamoylamino]-1-naphthyl]oxy]-2-pyridyl]amino]-N-methyl-5-(2-morpholinoethoxy)benzamide] | 3.9
2 | 4100 | COCCOCCOCCOc1cc(Nc2cc(Oc3ccc(NC(=O)Nc4cc(C(C)(C)C)cc(P(C)(C)=O)c4OC)c4ccccc34)ncn2)cc(OC)c1 [Example 4, 1-(5-(tert-Butyl)-3-(dimethylphosphoryl)-2-methoxyphenyl)-3-(4-((6-((3-methoxy-5-(2-(2-(2-methoxyethoxy)ethoxy)ethoxy)phenyl)amino)pyrimidin-4-yl)oxy)naphthalen-1-yl)urea] | 5.6
3 | 282 | COc1cc(Nc2nccc(Oc3ccc(NC(=O)Nc4cc(C(C)(C)C)cc(P(C)(C)=O)c4OC)c4ccccc34)n2)cc(P(C)(C)=O)c1 [Example 21, 1-(5-(tert-Butyl)-3-(dimethylphosphoryl)-2-methoxyphenyl)-3-(4-((2-((3-(dimethylphosphoryl)-5-methoxyphenyl)amino)pyrimidin-4-yl)oxy)naphthalen-1-yl)urea] | 3.2
4 | 280 | COc1c(NC(=O)Nc2ccc(Oc3ccnc(Nc4cccc(N=S(C)(C)=O)c4)n3)c3ccccc23)cc(C(C)(C)C)cc1P(C)(C)=O [Example 22, 1-(5-(tert-Butyl)-3-(dimethylphosphoryl)-2-methoxyphenyl)-3-(4-((2-((3-((dimethyl(oxo)-lambda-6-sulfanylidene)amino)phenyl)amino)pyrimidin-4-yl)oxy)naphthalen-1-yl)urea] | 3.3
5 | 7940 | COc1c(NC(=O)Nc2ccc(Oc3ccnc(Nc4ccccc4)c3)c3ccccc23)cc(C(C)(C)C)cc1C(=O)NCCN1CCNCC1 [Example 23, 5-(tert-Butyl)-2-methoxy-3-(3-(4-((2-(phenylamino)pyridin-4-yl)oxy)naphthalen-1-yl)ureido)-N-(2-(piperazin-1-yl)ethyl)benzamide] | 6.8
6 | 249 | COc1c(NC(=O)Nc2ccc(Oc3ccnc(NC(=O)CN4C[C@@H](C)O[C@@H](C)C4)c3)c3ccccc23)cc(C(C)(C)C)cc1P(C)(C)=O [Example 26, N-(4-((4-(3-(5-(tert-Butyl)-3-(dimethylphosphoryl)-2-methoxyphenyl)ureido)naphthalen-1-yl)oxy)pyridin-2-yl)-2-(cis-2,6-dimethylmorpholino)acetamide] | 2.2
7 | 186 | COc1c(NC(=O)Nc2ccc(Oc3ccnc(NC4CCOCC4)n3)c3ccccc23)cc(C(C)(C)C)cc1P(C)(C)=O [Example 31, 1-(5-(tert-Butyl)-3-(dimethylphosphoryl)-2-methoxyphenyl)-3-(4-((2-((tetrahydro-2H-pyran-4-yl)amino)pyrimidin-4-yl)oxy)naphthalen-1-yl)urea] | 2.6

Further lines, the molecule ahead of its results:

Row | Structure (SMILES) | IC50 (GSK 3α) [nM] | IC50 (PBMCs) [nM]
8 | COCCOCCOCCNC(=O)c1cc(Nc2cc(Oc3ccc(NC(=O)Nc4cc(C(C)(C)C)cc(CC(N)=O)c4OC)c(Cl)c3Cl)ccn2)cc(OC)c1 [38(ag), 3-((4-(4-(3-(3-(2-Amino-2-oxoethyl)-5-(tert-butyl)-2-methoxyphenyl)ureido)-2,3-dichlorophenoxy)pyridin-2-yl)amino)-5-methoxy-N-(2-(2-(2-methoxyethoxy)ethoxy)ethyl)benzamide] | 370 | 0.6
9 | COc1cc(Nc2nccc(Oc3ccc(NC(=O)Nc4cc(C(C)(C)C)cc(C(=O)NCCN5CCOCC5)c4OC)c4ccccc34)n2)cc(C(=O)NCCN2CCOCC2)c1 [38(ak), 5-(tert-Butyl)-2-methoxy-3-(3-(4-((2-((3-methoxy-5-((2-morpholinoethyl)carbamoyl)-phenyl)amino)pyrimidin-4-yl)oxy)naphthalen-1-yl)ureido)-N-(2-morpholinoethyl)benzamide] | 461 | 1.2
10 | COc1cc(Nc2cc(Oc3ccc(NC(=O)Nc4cc(C(C)(C)C)cc(P(C)(C)=O)c4OC)c4ccccc34)ccn2)cc(C(=O)NCCN2CC[S+]([O-])CC2)c1 [38(am), 3-((4-((4-(3-(5-(tert-Butyl)-3-(dimethylphosphoryl)-2-methoxyphenyl)ureido)naphthalen-1-yl)oxy)pyridin-2-yl)amino)-5-methoxy-N-(2-(1-oxidothiomorpholino)ethyl)benzamide] | 1500 | 6.2
11 | COc1cc(Nc2cc(Oc3ccc(NC(=O)Nc4cc(C(C)(C)C)cc(S(C)(=O)=O)c4OC)c4ccccc34)ccn2)ccc1C(=O)NCCN1CCOCC1 [38(ap), 4-((4-((4-(3-(5-(tert-Butyl)-2-methoxy-3-(methylsulfonyl)phenyl)ureido)naphthalen-1-yl)oxy)pyridin-2-yl)amino)-2-methoxy-N-(2-morpholinoethyl)benzamide] | > 5800 | 4.5
12 | COc1c(NC(=O)Nc2ccc(Oc3ccnc(Nc4ccccc4)c3)c3ccccc23)cc(C(C)(C)C)cc1[S+](C)[O-] (stereo not shown) [38(b1), 1-(5-(tert-Butyl)-2-methoxy-3-(methylsulfinyl)phenyl)-3-(4-((2-(phenylamino)pyridin-4-yl)oxy)naphthalen-1-yl)urea] | > 9660 | 8.3
13 | COc1cccc(Nc2cc(Oc3ccc(NC(=O)Nc4cc(C(C)(C)C)cc(CC(=O)N(C)C)c4OC)c4ccccc34)ccn2)c1 [38(i), 2-(5-(tert-Butyl)-2-methoxy-3-(3-(4-((2-((3-methoxyphenyl)amino)pyridin-4-yl)oxy)naphthalen-1-yl)ureido)phenyl)-N,N-dimethylacetamide] | > 15400 | 11.4
14 | COc1cccc(Nc2cc(Oc3ccc(NC(=O)Nc4cc(C(C)(C)C)cc(CC(=O)N5CCOCC5)c4OC)c4ccccc34)ccn2)c1 [38(j), 1-(5-(tert-Butyl)-2-methoxy-3-(2-morpholino-2-oxoethyl)phenyl)-3-(4-((2-((3-methoxyphenyl)amino)pyridin-4-yl)oxy)naphthalen-1-yl)urea] | > 14500 | 12.5
15 | COc1c(CC(N)=O)cc(C(C)(C)C)cc1NC(=O)Nc1ccc(Oc2ccnc(Nc3ccccc3)c2)c(F)c1F [38(l), 2-(5-(tert-Butyl)-3-(3-(2,3-difluoro-4-((2-(phenylamino)pyridin-4-yl)oxy)phenyl)ureido)-2-methoxyphenyl)acetamide] | 472 | 5.9
16 | COc1c(CNC(C)=O)cc(C(C)(C)C)cc1NC(=O)Nc1ccc(Oc2ccnc(Nc3cc(C)cc(C)c3)c2)c2ccccc12 [38(p), N-(5-(tert-Butyl)-3-(3-(4-((2-((3,5-dimethylphenyl)amino)pyridin-4-yl)oxy)naphthalen-1-yl)ureido)-2-methoxybenzyl)acetamide] | > 15800 | 7.2
17 | COCCOCCOCCNC(=O)c1cc(Nc2cc(Oc3ccc(NC(=O)Nc4cc(C(C)(C)C)cc(C[S+](C)[O-])c4OC)c4ccccc34)ccn2)cc(OC)c1 (stereo not shown) [38(z), 3-((4-((4-(3-(5-(tert-Butyl)-2-methoxy-3-((methylsulfinyl)methyl)phenyl)ureido)naphthalen-1-yl)oxy)pyridin-2-yl)amino)-5-methoxy-N-(2-(2-(2-methoxyethoxy)ethoxy)ethyl)benzamide] | 789 | 0.6
18 | COc1cc(Nc2cc(Oc3ccc(NC(=O)Nc4cc(C(C)(C)C)cc(P(C)(C)=O)c4OC)c4ccccc34)ccn2)ccc1C(=O)N1CCN(C)CC1 [79(a), 1-(5-tert-Butyl-3-dimethylphosphoryl-2-methoxy-phenyl)-3-[4-[[2-[3-methoxy-4-(4-methylpiperazine-1-carbonyl)anilino]-4-pyridyl]oxy]-1-naphthyl]urea] | 480 | 5.1
19 | COc1cc(Nc2cc(Oc3ccc(NC(=O)Nc4cc(C(C)(C)C)cc(P(C)(C)=O)c4OC)c4ccccc34)ccn2)ccc1C(=O)NC1CCN(C)CC1 [79(b), 4-[[4-[[4-[(5-tert-Butyl-3-dimethylphosphoryl-2-methoxy-phenyl)carbamoylamino]-1-naphthyl]oxy]-2-pyridyl]amino]-2-methoxy-N-(1-methyl-4-piperidyl)benzamide] | 1880 | 7.4
20 | COc1cc(Nc2cc(Oc3ccc(NC(=O)Nc4cc(C(C)(C)C)cc(P(C)(C)=O)c4OC)c4ccccc34)ccn2)ccc1C(=O)NCCN(C)C [79(c), 4-[[4-[[4-[(5-tert-Butyl-3-dimethylphosphoryl-2-methoxy-phenyl)carbamoylamino]-1-naphthyl]oxy]-2-pyridyl]amino]-N-(2-dimethylaminoethyl)-2-methoxy-benzamide] | 1770 | 7
